Results from US6300368A, “Anilide derivatives and antiarrhythmic agents containing the same” (priority 1998, dated 2001).
Counter-ions that a name gives are not always drawn.

test system: aconitin-induced atrial fibrillation; experiment: Aconitin-induced atrial fibrillation model in anaesthetized dogs (Pharmacological Trial 1); format: in vivo, dog; conditions: Canis lupus familiaris; intravenous, anesthetized dogs, as hydrochloride; read-out: minimum dose level which suppresses atrial fibrillation
Procedure: Pharmacological Trial 1: Evaluation of effectiveness in aconitin-induced atrial fibrillation model (dogs) Evaluation was performed according to K. Hashimoto (Jpn. J. Pharmacol., Vol. 46, 349-358, 1988) as follows:
Method: Dog was anesthetized and thoracotomy was made. Persistent atrial fibrillation was induced by placing a piece of filter paper impregnated with 0.5% aconitin solution (20 to 30 μl) on the right atrium. […] Onset and suppression of atrial fibrillation were monitored electrocardiographically by placing Ag--AgCl bipolar electrode on the right atrial auricle.
Results: Each compound in Examples 1 to 87 suppressed atrial fibrillation at least following dose level (all compounds were used in the form of hydrochloride).

| Molecule | minimal effective dose |
| --- | --- |
| COCCCNCCOc1ccc(NC(=O)c2c(OC)cccc2OC)cc1 [Example 48, 2,6-Dimethoxy-4'-[2-[(3-methoxypropyl)amino]ethoxy]benzanilide] | 3 mg/kg |
| CCN(CC)CCOc1ccc(NC(=O)c2ccccc2NS(=O)(=O)C(C)C)cc1.Cl [Example 12, 4'-[2-(Diethylamino)ethoxy]-2-(isopropanesulfonamido)benzanilide Hydrochloride] | 3 mg/kg |
| COc1cccc(OC)c1C(=O)Nc1ccc(OCCNC2CC2)cc1 [Example 50, 4'-[2-(Cyclopropylamino)ethoxy]-2,6-dimethoxybenzanilide] | 3 mg/kg |
| CC(C)NCCOc1ccc(NC(=O)c2ccoc2)cc1.Cl [Example 35, 4'-[2-(Isopropylamino)ethoxy]-3-furanilide Hydrochloride] | 10 mg/kg |
| CCCNCCOc1ccc(NC(=O)c2c(OC)cccc2OC)cc1 [Example 26, 2,6-Dimethoxy-4'-[2-(propylamino)ethoxy]benzanilide] | 10 mg/kg |
| CS(=O)(=O)Nc1ccccc1C(=O)Nc1ccc(OCCN2CCCC2)cc1 [Example 17, 2-Methanesulfonamido-4'-[2-(1-pyrrolidinyl)ethoxy]benzanilide] | 10 mg/kg |
| Cc1cc(NC(=O)c2ccoc2)ccc1OCCNC(C)C.Cl [Example 79, 4'-[2-(Isopropylamino)ethoxy]-3'-methyl-3-furanilide Hydrochloride] | 10 mg/kg |
| Cl.O=C(Nc1ccc(OCCNC2CC2)cc1)C1CCOC1 (stereo not shown) [Example 51, 4'-[2-(Cyclopropylamino)ethoxy]-2,3,4,5-tetrahydro-3-furanilide Hydrochloride] | 3 mg/kg |
| CCOc1cccc(OCC)c1C(=O)Nc1ccc(OCCN(CC)CC)cc1.Cl [Example 8, 4'-[2-(Diethylamino)ethoxy]-2,6-diethoxybenzanilide Hydrochloride] | 10 mg/kg |
| CCNCCOc1ccc(NC(=O)c2ccccc2S(C)(=O)=O)cc1.Cl [Example 22, 4'-[(2-Ethylamino)ethoxy]-2-(methanesulfonyl)benzanilide Hydrochloride] | 3 mg/kg |
| COCCNCCOc1ccc(NC(=O)C2CCOC2)cc1.Cl (stereo not shown) [Example 43, 4'-[2-[(2-Methoxyethyl)amino]ethoxy]-2,3,4,5-tetrahydro-3-furanilide Hydrochloride] | 10 mg/kg |
| CCCS(=O)(=O)Nc1ccccc1C(=O)Nc1ccc(OCCN(CC)CC)cc1.Cl [Example 11, 4'-[2-(Diethylamino)ethoxy]-2-(propanesulfonamido)benzanilide Hydrochloride] | 3 mg/kg |
| CCNCCOc1ccc(NC(=O)c2c(OC)cccc2OC)cc1.Cl [Example 20, 4'-[(2-Ethylamino)ethoxy]-2,6-dimethoxybenzanilide Hydrochloride] | 10 mg/kg |
| CCNCCOc1c(C)cc(NC(=O)c2ccccc2S(C)(=O)=O)cc1C.Cl [Example 81, 4'-[2-(Ethylamino)ethoxy]-2-methanesulfonyl-3',5'-dimethylbenzanilide Hydrochloride] | 3 mg/kg |
| COc1cccc(OC)c1C(=O)Nc1cc(C)c(OCCNC(C)C)c(C)c1.Cl [Example 82, 4'-[2-(Isopropylamino)ethoxy]-2,6-dimethoxy-3',5'-dimethyl benzanilide Hydrochloride] | 10 mg/kg |
| COc1cc(NC(=O)c2ccccc2S(C)(=O)=O)ccc1OCCNC(C)C.Cl [Example 59, 4'-[2-(Isopropylamino)ethoxy]-2-methanesulfonyl-3'-methoxybenzanilide Hydrochloride] | 10 mg/kg |
| COc1cccc(OC)c1C(=O)Nc1ccc(OCCNC(C)C)c(NS(C)(=O)=O)c1 [Example 65, 4'-[2-(Isopropylamino)ethoxy]-3'-methanesulfonamido-2,6-dimethoxybenzanilide] | 10 mg/kg |
| COCCNCCOc1ccc(NC(=O)c2ccccc2NS(C)(=O)=O)cc1 [Example 42, 2-Methanesulfonamido-4'-[2-[(2-methoxyethyl)amino]ethoxy]benzanilide] | 3 mg/kg |
| COc1cccc(OC)c1C(=O)Nc1ccc(OCCNC(C)C)cc1NS(C)(=O)=O [Example 64, 4'-[2-(Isopropylamino)ethoxy]-2'-methanesulfonamido-2,6-dimethoxybenzaniideHydrochloride] | 10 mg/kg |
| COCCC(=O)Nc1ccc(OCCNC2CC2)cc1 [Example 53, 4'-[2-(Cyclopropylamino)ethoxy]-3-methoxypropananilide] | 10 mg/kg |
| COCCNCCOc1ccc(NC(=O)c2c(OC)cccc2OC)cc1 [Example 41, 4'-[2-[(2-Methoxyethyl)amino]ethoxy]-2,6-dimethoxy Benzanilide] | 10 mg/kg |

| Molecule | minimal effective dose |
| --- | --- |
| Cc1cc(OCCNC(C)C)ccc1NC(=O)c1ccoc1.Cl [Example 72, 4'-[2-(Isopropylamino)ethoxy]-2'-methyl-3-furanilide Hydrochloride] | 3 mg/kg |
| Cc1cc(NC(=O)C2CCOC2)cc(C)c1OCCNC(C)C.Cl (stereo not shown) [Example 84, 4'-[2-(Isopropylamino)ethoxy]-3',5'-dimethyl-2,3,4,5-tetrahydro-3-furanilide Hydrochloride] | 10 mg/kg |
| CCNCCOc1ccc(NC(=O)CCOC)cc1 [Example 24, 4'-[(2-Ethylamino)ethoxy]-3-methoxypropananilide] | 10 mg/kg |
| CS(=O)(=O)Nc1ccccc1C(=O)Nc1ccc(OCCNC2CCCC2)cc1 [Example 54] | 10 mg/kg |
| COc1cccc(OC)c1C(=O)Nc1ccc(OCCNC(C)C)c(C)c1.Cl [Example 74, 4'-[2-(Isopropylamino)ethoxy]-2,6-dimethoxy-3'-methylbenzanilide Hydrochloride] | 3 mg/kg |
| COCCC(=O)Nc1ccc(OCCNC(C)C)cc1.Cl [Example 36, 4'-[2-(Isopropylamino)ethoxy]-3-methoxypropananilide Hydrochloride] | 10 mg/kg |
| CS(=O)(=O)Nc1cc(NC(=O)c2ccccc2NS(C)(=O)=O)ccc1OCCNC1CCCC1.Cl [Example 68, 4'-[2-(Cyclopentylamino)ethoxy]-2-methanesulfonamido-3'-(methanesulfonamido)benzanilide Hydrochloride] | 10 mg/kg |
| COc1cccc(OC)c1C(=O)Nc1ccc(OCCNCC(C)C)cc1 [Example 38, 4'-[2-(Isobutylamino)ethoxy]-2,6-dimethoxybenzanilide] | 3 mg/kg |
| COCCC(=O)Nc1ccc(OCCNC(C)C)c(C)c1.Cl [Example 78, 4'-[2-(Isopropylamino)ethoxy]-3-methoxy-3'-methylpropananilide Hydrochloride] | 3 mg/kg |
| CCCNCCOc1ccc(NC(=O)C2CCOC2)cc1.Cl (stereo not shown) [Example 27, 4'-[2-(Propylamino)ethoxy]-2,3,4,5-tetrahydro-3-furanilide Hydrochloride] | 3 mg/kg |
| Cc1cc(NC(=O)C2CCOCC2)ccc1OCCNC(C)C.Cl [Example 77, 4'-[2-(Isopropylamino)ethoxy]-3'-methyl-3,4,5,6-tetrahydro-2H-pyran-4-carboxanilide Hydrochloride] | 10 mg/kg |
| CCCN(CCC)CCOc1ccc(NC(=O)c2c(OC)cccc2OC)cc1 [Example 13, 4'-[2-(Dipropylamino)ethoxy]-2,6-dimethoxybenzanilide] | 10 mg/kg |
| COCCNCCOc1ccc(NC(=O)c2ccoc2)cc1.Cl [Example 45, 4'-[2-[(2-Methoxyethyl)amino]ethoxy]-3-furanilide Hydrochloride] | 10 mg/kg |
| Cc1cc(NC(=O)c2ccccc2S(C)(=O)=O)cc(C)c1OCCNC(C)C.Cl [Example 83, 4'-[2-(Isopropylamino)ethoxy]-2-methanesulfonyl-3',5'-dimethylbenzanilide Hydrochloride] | 10 mg/kg |
| Cc1cc(NC(=O)c2ccccc2S(C)(=O)=O)ccc1OCCNC(C)C.Cl [Example 76, 4'-[2-(Isopropylamino)ethoxy]-2-methanesulfonyl-3'-methylbenzanilide Hydrochloride] | 3 mg/kg |
| COc1cc(NC(=O)c2c(OC)cccc2OC)ccc1OCCNC(C)C.Cl [Example 4, 4'-[2-(isopropylamino)ethoxy]-2,6-dimethoxy-3'-methoxybenzanilide Hydrochloride] | 10 mg/kg |
| CC(C)NCCOc1ccc(NC(=O)c2ccccc2S(C)(=O)=O)cc1.Cl [Example 32, 4'-[2-(Isopropylamino)ethoxy]-2-(methanesulfonyl) benzanilide Hydrochloride] | 10 mg/kg |
| CC(C)NCCOc1ccc(NC(=O)c2ccccc2NS(C)(=O)=O)cc1NS(C)(=O)=O.Cl [Example 66, 4'-[2-(Isopropylamino)ethoxy]-2-methanesulfonamido-3'-(methanesulfonamido)benzanilide Hydrochloride] | 3 mg/kg |
| Cc1cc(NC(=O)C2CCOCC2)cc(C)c1OCCNC(C)C.Cl [Example 85, 4'-[2-(Isopropylamino)ethoxy]-3',5'-dimethyl-3,4,5,6-tetrahydro-2H-pyran-4-carboxanilide Hydrochloride] | 10 mg/kg |
| CCN(CC)CCOc1ccc(NC(=O)c2ccccc2NS(C)(=O)=O)cc1.Cl [Example 9, 4'-[2-(Diethylamino)ethoxy]-2-(methanesulfonamido)benzanilide Hydrochloride] | 10 mg/kg |
| COCCC(=O)Nc1ccc(OCCNC2CCCC2)c(OC)c1 [Example 61, 4'-[2-(Cyclopentylamino)ethoxy]-3'-methoxy-3-methoxypropananilide] | 10 mg/kg |

same assay, conditions: intravenous, anesthetized dogs, as hydrochloride

| Molecule | minimum dose level which suppresses atrial fibrillation |
| --- | --- |
| 4'-[2-(Dipropylamino)ethoxy]-2,6-dimethoxybenzanilide [Example 15] | 10 mg/kg |
